Measurements: US6620828B2, “Thiazole compounds and pharmaceutical compositions for inhibiting protein kinases and methods for their use” (Agouron Pharmaceuticals, Inc., priority 1999, dated 2003)

Tested on: human umbilical vein endothelial cells (HUVEC)
Assay: HUVEC proliferation assay
Type: cell-based
Settings: Homo sapiens, HUVEC, Table I screening results; 150 nM; crude combinatorial amide library
Method in brief: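 Readout was MTT dye reduction (A595) after 72 h of stimulation with VEGF at 6 ng/ml final. Compound, in 0.1% DMSO final, was added 1 h before VEGF to HUVEC starved 24 h in 1% FBS. % inhibition was scaled between VEGF-alone and unstimulated wells; IC50 was fitted from triplicate dose curves.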

| Compound | inhibition at 0.15 µM [%] |
| --- | --- |
| COc1cc(Nc2nc(N)c(-c3nc(-c4cccc(NC(=O)c5ccccc5CCc5ccccc5)c4)cs3)s2)cc(OC)c1OC | -14 |
| COc1cc(Nc2nc(N)c(-c3nc(-c4cccc(NC(=O)c5cccc(C(=O)c6ccccc6)c5)c4)cs3)s2)cc(OC)c1OC | -18 |
| COc1cc(Nc2nc(N)c(-c3nc(-c4cccc(NC(=O)C5CCCCC5)c4)cs3)s2)cc(OC)c1OC | -24 |
| COc1cc(Nc2nc(N)c(-c3nc(-c4cccc(NC(=O)c5ccc(-c6ccccc6)cc5)c4)cs3)s2)cc(OC)c1OC | -32 |
| COc1cc(Nc2nc(N)c(-c3nc(-c4cccc(NC(=O)CC5CCCCC5)c4)cs3)s2)cc(OC)c1OC | 3 |
| COc1cc(Nc2nc(N)c(-c3nc(-c4cccc(NC(=O)Cc5ccc(Cl)cc5Cl)c4)cs3)s2)cc(OC)c1OC | -20 |
| CCc1ccc(-c2ccc(C(=O)Nc3cccc(-c4csc(-c5sc(Nc6cc(OC)c(OC)c(OC)c6)nc5N)n4)c3)cc2)cc1 | -7 |
| COc1cc(Nc2nc(N)c(-c3nc(-c4cccc(NC(=O)c5ccc6[nH]nnc6c5)c4)cs3)s2)cc(OC)c1OC | -8 |
| COc1cc(Nc2nc(N)c(-c3nc(-c4cccc(NC(=O)c5ccncc5)c4)cs3)s2)cc(OC)c1OC | 1 |
| COc1cc(Nc2nc(N)c(-c3nc(-c4cccc(NC(=O)Cc5ccc(Cl)cc5)c4)cs3)s2)cc(OC)c1OC | -7 |
| COc1cc(Nc2nc(N)c(-c3nc(-c4cccc(NC(=O)c5ccc6[nH]cnc6c5)c4)cs3)s2)cc(OC)c1OC | -30 |
| COc1cc(Nc2nc(N)c(-c3nc(-c4cccc(NC(=O)Cc5cccc(Cl)c5)c4)cs3)s2)cc(OC)c1OC | 30 |
| COc1cc(Nc2nc(N)c(-c3nc(-c4cccc(NC(=O)c5cc6cccc(OC)c6o5)c4)cs3)s2)cc(OC)c1OC | 21 |
| COc1cc(Nc2nc(N)c(-c3nc(-c4cccc(NC(=O)c5cn(Cc6ccccc6)c6ccccc56)c4)cs3)s2)cc(OC)c1OC | -11 |
| CC/C=C/CC(=O)Nc1cccc(-c2csc(-c3sc(Nc4cc(OC)c(OC)c(OC)c4)nc3N)n2)c1 | 19 |
| COc1cc(Nc2nc(N)c(-c3nc(-c4cccc(NC(=O)c5ccc6cc[nH]c6c5)c4)cs3)s2)cc(OC)c1OC | 25 |
| COc1cc(Nc2nc(N)c(-c3nc(-c4cccc(NC(=O)c5ccc6ncccc6c5)c4)cs3)s2)cc(OC)c1OC | 26 |
| COc1cc(Nc2nc(N)c(-c3nc(-c4cccc(NC(=O)CN5C(=O)CSC5=O)c4)cs3)s2)cc(OC)c1OC | 17 |
| COc1cc(Nc2nc(N)c(-c3nc(-c4cccc(NC(=O)C5C=CCC=C5C)c4)cs3)s2)cc(OC)c1OC (stereo not shown) | 14 |
| COc1ccc2c(c1)C(CC(=O)Nc1cccc(-c3csc(-c4sc(Nc5cc(OC)c(OC)c(OC)c5)nc4N)n3)c1)CC2=O (stereo not shown) | 0 |
| COc1ccc2[nH]c(C(=O)Nc3cccc(-c4csc(-c5sc(Nc6cc(OC)c(OC)c(OC)c6)nc5N)n4)c3)cc2c1 | 1 |
| COc1cc(Nc2nc(N)c(-c3nc(-c4cccc(NC(=O)c5ccc6ccccc6n5)c4)cs3)s2)cc(OC)c1OC | -11 |
| COc1cc(Nc2nc(N)c(-c3nc(-c4cccc(NC(=O)c5ccc6c(c5)OCO6)c4)cs3)s2)cc(OC)c1OC | 42 |
| C#CCCCC(=O)Nc1cccc(-c2csc(-c3sc(Nc4cc(OC)c(OC)c(OC)c4)nc3N)n2)c1 | -14 |
| COc1ccc2oc(C(=O)Nc3cccc(-c4csc(-c5sc(Nc6cc(OC)c(OC)c(OC)c6)nc5N)n4)c3)cc2c1 | 7 |
| COc1cc(Nc2nc(N)c(-c3nc(-c4cccc(NC(=O)C(C)c5ccccc5)c4)cs3)s2)cc(OC)c1OC (stereo not shown) | 3 |

| Compound | inhibition at 0.15 µM [%] |
| --- | --- |
| COc1cc(Nc2nc(N)c(-c3nc(-c4cccc(NC(=O)C5=C(C)c6ccccc6C5)c4)cs3)s2)cc(OC)c1OC | 29 |
| COc1cc(Nc2nc(N)c(-c3nc(-c4cccc(NC(=O)/C=C/c5cccnc5)c4)cs3)s2)cc(OC)c1OC | -13 |
| COc1cc(Nc2nc(N)c(-c3nc(-c4cccc(NC(=O)C5CCCCCC5)c4)cs3)s2)cc(OC)c1OC | 13 |
| COc1cc(Nc2nc(N)c(-c3nc(-c4cccc(NC(=O)c5ccc(N(C)C)cc5)c4)cs3)s2)cc(OC)c1OC | 0 |
| CCC(C)CC(=O)Nc1cccc(-c2csc(-c3sc(Nc4cc(OC)c(OC)c(OC)c4)nc3N)n2)c1 (stereo not shown) | -3 |
| COc1cc(Nc2nc(N)c(-c3nc(-c4cccc(NC(=O)C(C)(C)C)c4)cs3)s2)cc(OC)c1OC | 7 |
| COc1cc(Nc2nc(N)c(-c3nc(-c4cccc(NC(=O)c5ccc(CCCl)cc5)c4)cs3)s2)cc(OC)c1OC | 59 |
| COc1cc(Nc2nc(N)c(-c3nc(-c4cccc(NC(=O)CCc5nc6ccccc6[nH]5)c4)cs3)s2)cc(OC)c1OC | 27 |
| COc1cc(Nc2nc(N)c(-c3nc(-c4cccc(NC(=O)c5csc(-c6cccnc6)n5)c4)cs3)s2)cc(OC)c1OC | 38 |
| COc1cc(Nc2nc(N)c(-c3nc(-c4cccc(NC(=O)c5ccc(C(=O)C(F)(F)F)cc5)c4)cs3)s2)cc(OC)c1OC | 26 |
| COc1cc(Nc2nc(N)c(-c3nc(-c4cccc(NC(=O)Cc5ccc6c(c5)OCO6)c4)cs3)s2)cc(OC)c1OC | 46 |
| COC(=O)c1ccc(C(=O)Nc2cccc(-c3csc(-c4sc(Nc5cc(OC)c(OC)c(OC)c5)nc4N)n3)c2)cc1 | 23 |
| COc1cc(Nc2nc(N)c(-c3nc(-c4cccc(NC(=O)CCC(C)C)c4)cs3)s2)cc(OC)c1OC | 39 |
| COc1cc(Nc2nc(N)c(-c3nc(-c4cccc(NC(=O)c5cccc(C#N)c5)c4)cs3)s2)cc(OC)c1OC | 56 |
| COc1cc(Nc2nc(N)c(-c3nc(-c4cccc(NC(=O)c5ccc(C#N)cc5)c4)cs3)s2)cc(OC)c1OC | 34 |
| COc1cc(Nc2nc(N)c(-c3nc(-c4cccc(NC(=O)Cc5ccccc5Cl)c4)cs3)s2)cc(OC)c1OC | 34 |
| COc1cc(Nc2nc(N)c(-c3nc(-c4cccc(NC(=O)c5ccc(SC)cc5)c4)cs3)s2)cc(OC)c1OC | 31 |
| COc1cc(Nc2nc(N)c(-c3nc(-c4cccc(NC(=O)c5cnc(Cl)c(Cl)c5)c4)cs3)s2)cc(OC)c1OC | 20 |
| COc1ccc(CCC(=O)Nc2cccc(-c3csc(-c4sc(Nc5cc(OC)c(OC)c(OC)c5)nc4N)n3)c2)cc1OC | 23 |
| COc1ccccc1CC(=O)Nc1cccc(-c2csc(-c3sc(Nc4cc(OC)c(OC)c(OC)c4)nc3N)n2)c1 | 58 |
| COc1cc(CC(=O)Nc2cccc(-c3csc(-c4sc(Nc5cc(OC)c(OC)c(OC)c5)nc4N)n3)c2)cc(OC)c1OC | 29 |
| COc1cc(Nc2nc(N)c(-c3nc(-c4cccc(NC(=O)Cc5ccc(F)cc5)c4)cs3)s2)cc(OC)c1OC | -7 |
| COc1cc(Nc2nc(N)c(-c3nc(-c4cccc(NC(=O)CCOc5ccccc5)c4)cs3)s2)cc(OC)c1OC | 11 |
| COc1cc(Nc2nc(N)c(-c3nc(-c4cccc(NC(=O)/C=C/c5ccc(Cl)cc5)c4)cs3)s2)cc(OC)c1OC | 40 |
| COc1ccccc1/C=C\C(=O)Nc1cccc(-c2csc(-c3sc(Nc4cc(OC)c(OC)c(OC)c4)nc3N)n2)c1 | 53 |
| COc1cc(Nc2nc(N)c(-c3nc(-c4cccc(NC(=O)C(Cc5ccccc5)c5ccccc5)c4)cs3)s2)cc(OC)c1OC (stereo not shown) | 11 |
